Test results published in patent publication US10981932B2, “Macrocyclic indole derivatives” (Bayer Aktiengesellschaft, priority 2016, dated 2021).
Structures can show the parent of a compound that is named as a salt. Where two headings read alike, the source gives them in different places.

Tests used:
MCL-1 = MCL-1 (Homo sapiens, UniProt Q07820); assay: Protein-protein interaction assay MCL-1/Noxa BH3 peptide (MCL-1 assay), TR-FRET; assay type: binding; details: MBP-MCL-1 / Noxa BH3-derived peptide, median
In short: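 IC50 came from a 4-parameter fit of the normalized 665/620 nm TR-FRET ratio (anti-MBP Eu-cryptate/streptavidin-XL665). Compounds (0.1 nM–20 μM, duplicates) were preincubated 10 min at 22 °C with 1 nM MBP-MCL-1 in pH 7 Tris/NaCl/KF buffer, then read after 1 h at 22 °C plus overnight at 4 °C.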

SUDHL10 [1] = assay: Induction of cytotoxicity (CellTiter-Glo, 5 h), SUDHL10
SUDHL10 [2] = assay: Anti-proliferative effect (CellTiter-Glo, 72 h), SUDHL10; assay type: cell-based; details: SUDHL10 cells, antiproliferation, median, read-out: Antiproli SUDHL10 [M] (median)
In short: (§1)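 Cells plated and incubated with compounds for 72 h at 37 °C, with a parallel day 0 reference plate for time-zero signal. Viability read by CellTiter-Glo luminescence after 10 min, measured identically on the day 0 and 72 h plates.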

SUDHL10 [3] = assay: Induction of caspase-3/7 activity (Caspase-Glo 3/7), SUDHL10; assay type: cell-based; details: caspase-3/7 induction, SUDHL10 cells, 3 h treatment, median
In short: (§2)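 DLBCL lines SUDHL5 and SUDHL10 treated with compounds for 3 h at 37 °C; caspase-3/7 activity read by Caspase-Glo 3/7 luminescence. Medium-only background subtracted; EC50 fitted with bottom fixed at 1 and top fixed at the reference compound's maximal induction.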

A2780 = assay: Anti-proliferative effect (CellTiter-Glo, 72 h), A2780; assay type: cell-based; details: A2780 cells, median, read-out: IC50 antiproliferation assay A2780 [M] (median)
In short: as §1

SUDHL5 [4] = assay: Induction of cytotoxicity (CellTiter-Glo, 5 h), SUDHL5
SUDHL5 [5] = assay: Induction of caspase-3/7 activity (Caspase-Glo 3/7), SUDHL5; assay type: cell-based; details: caspase-3/7 induction, SUDHL5 cells, 3 h treatment, median
In short: as §2

SUDHL5 [6] = assay: Anti-proliferative effect (CellTiter-Glo, 72 h), SUDHL5; assay type: cell-based; details: SUDHL5 cells, antiproliferation, median, read-out: Antiproli SUDHL5 [M] (median)
In short: as §1

[7] = read-out: Cytotox SUDHL10 [M] (median), SUDHL10 cells, cytotoxicity induction, CellTiter-Glo, 5 h incubation, median
[8] = read-out: Cytotox SUDHL5 [M] (median), SUDHL5 cells, cytotoxicity induction, CellTiter-Glo, 5 h incubation, median
[9] = Homo sapiens, SU-DHL10, 5 h, read-out: Cytotox SUDHL10 [M] (median), SUDHL10 cells, cytotoxicity induction, CellTiter-Glo, 5 h incubation, median
[10] = Homo sapiens, SU-DHL10, 72 h, 72 h incubation
[11] = Homo sapiens, SU-DHL10, 5 h, read-out: Cytotox SUDHL10 [M] (median), SUDHL10 cells, cytotoxicity induction, CellTiter-Glo, 5 h, median
[12] = Homo sapiens, SU-DHL10, 72 h, 72 h
[13] = Homo sapiens, SU-DHL-5, 5 h, read-out: Cytotox SUDHL5 [M] (median), SUDHL5 cells, cytotoxicity induction, CellTiter-Glo, 5 h, median
[14] = Homo sapiens, SU-DHL-5, 72 h, 72 h

Sequence of MCL-1 (Q07820 whole entry): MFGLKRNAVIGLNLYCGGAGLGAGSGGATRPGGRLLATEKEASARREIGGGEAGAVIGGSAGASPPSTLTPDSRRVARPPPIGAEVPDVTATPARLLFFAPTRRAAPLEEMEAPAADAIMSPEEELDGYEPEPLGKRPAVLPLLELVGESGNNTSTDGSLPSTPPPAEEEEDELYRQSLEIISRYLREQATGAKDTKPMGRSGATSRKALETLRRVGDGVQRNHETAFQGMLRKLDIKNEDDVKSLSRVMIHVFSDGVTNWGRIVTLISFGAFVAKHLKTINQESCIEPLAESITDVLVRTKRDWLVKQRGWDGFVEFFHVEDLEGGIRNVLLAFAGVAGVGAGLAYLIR

IC50 (MCL-1) | IC50 (SUDHL10 [2]; 72 h incubation) | EC50 (SUDHL10 [3]) | IC50 (A2780) | EC50 (SUDHL5 [5]) | IC50 (SUDHL5 [6]; 72 h incubation) | IC50 (SUDHL10 [2]; [10]) | EC50 (SUDHL10 [3]; Homo sapiens, SU-DHL10, 3 h) | IC50 (A2780; Homo sapiens, A2780, 72 h) | IC50 (SUDHL10 [2]; [12]) | EC50 (SUDHL5 [5]; Homo sapiens, SU-DHL-5, 3 h) | IC50 (SUDHL5 [6]; [14]) | IC50 (SUDHL5 [6]; Homo sapiens, SU-DHL-5, 72 h, 72 h incubation) | SMILES | IC50 (SUDHL10 [1]; [7]) | IC50 (SUDHL5 [4]; [8]) | IC50 (SUDHL10 [1]; [9]) | IC50 (SUDHL10 [1]; [11]) | IC50 (SUDHL5 [4]; [13]) | IC50 (SUDHL10 [1]; read-out: Cytotox SUDHL10 [M] (median), SUDHL10 cells, cytotoxicity induction, CellTiter-Glo, 5 h, median) | IC50 (SUDHL5 [4]; Homo sapiens, SU-DHL-5, 5 h, read-out: Cytotox SUDHL5 [M] (median), SUDHL5 cells, cytotoxicity induction, CellTiter-Glo, 5 h incubation, median)
0.174 µM |  |  |  | > 33 µM | 2.44e-06 M | 4.44e-06 M | > 33 µM | > 3.3e-05 M |  |  |  |  | Cn1nc(COc2cncnc2)c2c1COCCCCn1c(C(=O)O)c(CCCOc3cccc4ccccc34)c3cccc-2c31 (single isomer, unassigned) [Example 211, 1-methyl-7-[3-(naphthalen-1-yloxy)propyl]-3-[(pyrimidin-5-yloxy)methyl]-1,10,11,12,13,15-hexahydropyrazolo[4′,3′:9,10][1,6]oxazacycloundecino[8,7,6-hi]indole-8-carboxylic Acid] |  | > 3.3e-05 M | > 3.3e-05 M |  |  |  | 
0.18 µM |  |  |  |  |  |  | > 33 µM | 2.35e-05 M | 2.24e-05 M | 27.2 µM | 1.93e-05 M |  | Cn1nc(CN2CCCC2)c2c1COCCCCn1c(C(=O)O)c(CCCOc3cccc4ccccc34)c3cccc-2c31 (racemic) [Example 335, (rac)-1-methyl-7-[3-(naphthalen-1-yloxy)propyl]-3-(pyrrolidin-1-ylmethyl)-1,10,11,12,13,15-hexahydropyrazolo[4′3′:9,10][1,6]oxazacycloundecino[8,7,6-hi]indole-8-carboxylic Acid] |  |  |  | 2.77e-05 M | 2.57e-05 M |  | 
0.048 µM |  |  |  |  |  |  | > 33 µM | > 3.3e-05 M | > 3.3e-05 M | > 33 µM | > 3.3e-05 M |  | Cn1nc(CN)c2c1COCCCCn1c(C(=O)O)c(CCCOc3cccc4ccccc34)c3cccc-2c31 (racemic) [Example 338, (rac)-3-(aminomethyl)-1-methyl-7-[3-(naphthalen-1-yloxy)propyl]-1,10,11,12,13,15-hexahydropyrazolo[4′,3′:9,10][1,6]oxazacycloundecino[8,7,6-hi]indole-8-carboxylic Acid] |  |  |  | > 3.3e-05 M | > 3.3e-05 M |  | 
0.106 µM | 1.02e-05 M | > 33 µM | 2.21e-05 M | > 33 µM | 2e-05 M |  |  |  |  |  |  |  | COCCn1nc(C2CC2)c2c1COCCCCn1c(C(=O)O)c(CCCOc3cccc4ccccc34)c3cccc-2c31 (single isomer, unassigned; enantiomer 2) [Example 104, 3-cyclopropyl-1-(2-methoxyethyl)-7-[3-(naphthalen-1-yloxy)propyl]-1,10,11,12,13,15-hexahydropyrazolo[4′,3′:9,10][1,6]oxazacycloundecino[8,7,6-hi]indole-8-carboxylic acid-N-ethylethanamine Salt (Enantiomer 2)] | > 3.3e-05 M | > 3.3e-05 M |  |  |  |  | 
0.0371 µM |  |  |  |  |  |  | 30.7 µM | 1.26e-05 M | 5.93e-06 M | 18.4 µM | 1.21e-05 M |  | COc1ccc(OCc2nn(C)c3c2-c2cccc4c(CCCOc5cccc6ccccc56)c(C(=O)O)n(c24)CCCCOC3)cc1 (racemic) [Example 319, (rac)-3-[(4-methoxyphenoxy)methyl]-1-methyl-7-[3-(naphthalen-1-yloxy)propyl]-1,10,11,12,13,15-hexahydropyrazolo[4′,3′:9,10][1,6]oxazacycloundecino[8,7,6-hi]indole-8-carboxylic Acid] |  |  |  | 2.83e-05 M | 2.11e-05 M |  | 

Continued, compound first:

SMILES | IC50 (MCL-1) | IC50 (SUDHL10 [2]; 72 h incubation) | EC50 (SUDHL10 [3]) | IC50 (A2780) | EC50 (SUDHL5 [5]) | IC50 (SUDHL5 [6]; 72 h incubation) | IC50 (SUDHL10 [2]; [10]) | EC50 (SUDHL10 [3]; Homo sapiens, SU-DHL10, 3 h) | IC50 (A2780; Homo sapiens, A2780, 72 h) | IC50 (SUDHL10 [2]; [12]) | EC50 (SUDHL5 [5]; Homo sapiens, SU-DHL-5, 3 h) | IC50 (SUDHL5 [6]; [14]) | IC50 (SUDHL5 [6]; Homo sapiens, SU-DHL-5, 72 h, 72 h incubation) | IC50 (SUDHL10 [1]; [7]) | IC50 (SUDHL5 [4]; [8]) | IC50 (SUDHL10 [1]; [9]) | IC50 (SUDHL10 [1]; [11]) | IC50 (SUDHL5 [4]; [13]) | IC50 (SUDHL10 [1]; read-out: Cytotox SUDHL10 [M] (median), SUDHL10 cells, cytotoxicity induction, CellTiter-Glo, 5 h, median) | IC50 (SUDHL5 [4]; Homo sapiens, SU-DHL-5, 5 h, read-out: Cytotox SUDHL5 [M] (median), SUDHL5 cells, cytotoxicity induction, CellTiter-Glo, 5 h incubation, median)
CCn1nc2c(c1C1CC1)-c1cccc3c(CCCOc4cccc5ccccc45)c(C(=O)O)n(c13)CCCCOC2 (single isomer, unassigned; enantiomer 2) [Example 083, 3-cyclopropyl-2-ethyl-7-[3-(naphthalen-1-yloxy)propyl]-2,10,11,12,13,15-hexahydropyrazolo[4′,3′:9,10][1,6]oxazacycloundecino[8,7,6-hi]indole-8-carboxylic acid-N-ethylethanamine Salt (Enantiomer 2)] | 0.172 µM | 1.47e-05 M | > 33 µM | 1.38e-05 M | > 33 µM | 2.68e-05 M |  |  |  |  |  |  |  | > 3.3e-05 M | > 3.3e-05 M |  |  |  |  | 
Cc1nn(C)c2c1-c1cccc3c(CCCOc4cccc5c4CCCC5)c(C(=O)O)n(c13)CCCCOC2 (single isomer, unassigned; enantiomer 2) [Example 008, 1,3-dimethyl-7-[3-(5,6,7,8-tetrahydronaphthalen-1-yloxy)propyl]-1,10,11,12,13,15-hexahydropyrazolo[4′3′:9,10][1,6]oxazacycloundecino[8,7,6-hi]indole-8-carboxylic Acid-N-ethylethanamine Salt (Enantiomer 2)] | 0.126 µM | 1.55e-05 M | > 33 µM | 2.46e-05 M | > 33 µM | 2.59e-05 M |  |  |  |  |  |  |  | > 3.3e-05 M | > 3.3e-05 M |  |  |  |  | 
CN1CCCn2c(C(=O)O)c(CCCOc3cccc4ccccc34)c3cccc(c32)-c2c(nn(C)c2C(F)(F)F)C1 (racemic) [Example 324, (rac)-7,10-dimethyl-1-[3-(naphthalen-1-yloxy)propyl]-11-(trifluoromethyl)-4,5,6,7,8,10-hexahydropyrazolo[3′,4′:7,8][1,5]diazecino[9,10,1-hi]indole-2-carboxylic Acid] | 0.027 µM |  | > 33 µM |  |  |  |  | 32.1 µM | 2.46e-05 M | 1.62e-05 M | > 33 µM | 1.59e-05 M |  |  |  |  | 2.68e-05 M | 2.92e-05 M | > 3.3e-05 M | 
Cc1nn(CCN2CCOCC2)c2c1-c1cccc3c(CCCOc4cccc5ccccc45)c(C(=O)O)n(c13)CCCCOC2 (single isomer, unassigned; enantiomer 2) [Example 097, 3-methyl-1-[2-(morpholin-4-yl)ethyl]-7-[3-(naphthalen-1-yloxy)propyl]-1,10,11,12,13,15-hexahydropyrazolo[4′,3′:9,10][1,6]oxazacycloundecino[8,7,6-hi]indole-carboxylic acid-N-ethylethanamine Salt (Enantiomer 2)] | 0.0589 µM | 1.21e-05 M | > 33 µM | 2.84e-05 M | > 33 µM | 2.25e-05 M |  |  |  |  |  |  |  | > 3.3e-05 M | 3.05e-05 M |  |  |  |  | 
Cc1ccc2c(CCCOc3cccc4ccccc34)c(C(=O)O)n3c2c1-c1c(C)nn(C)c1COCCCC3 (single isomer, unassigned; enantiomer 2) [Example 029, 1,3,4-trimethyl-7-[3-(naphthalen-1-yloxy)propyl]-1,10,11,12,13,15-hexahydropyrazolo[4′,3′:9,10][1,6]oxazacycloundecino[8,7,6-hi]indole-8-carboxylic acid-N-ethylethanamine Salt (Enantiomer 2)] | 0.22 µM | 1.38e-05 M | > 33 µM | 2.01e-05 M | > 33 µM | 1.82e-05 M |  |  |  |  |  |  |  | > 3.3e-05 M | > 3.3e-05 M |  |  |  |  | 
Cc1ccc2c(CCCOc3cccc4ccccc34)c(C(=O)O)n3c2c1-c1c(C)nn(C)c1COCCCC3 (single isomer, unassigned; enantiomer 1) [Example 028, 1,3,4-trimethyl-7-[3-(naphthalen-1-yloxy)propyl]-1,10,11,12,13,15-hexahydropyrazolo[4′,3′:9,10][1,6]oxazacycloundecino[8,7,6-hi]indole-8-carboxylic acid-N-ethylethanamine Salt (Enantiomer 1)] | 0.234 µM |  |  |  |  |  | 1.81e-05 M | > 33 µM | 1.94e-05 M |  | > 33 µM |  | 2.97e-05 M |  |  | > 3.3e-05 M |  |  |  | > 3.3e-05 M
